Marks after values point to notes of the source that are not given here.
What follows are molecules tested on superoxide generated from xanthine oxidase plus xanthine reaction (assay: Xanthine oxidase plus xanthine-induced chemiluminescence). Conditions: X: CL induced by xanthine oxidase plus xanthine.
Type: biochemical
Parameters: dose or concentration left out as unconfirmed
Protocol: To clarify the role of aspirin analogues and diflunisal esters in free radicals scavenging, the Fenton's reagent was replaced by an artificial superoxide generating system in the CL inhibition studies. This cell-free system consisted of 100 μg/mL of xanthine oxidase (Sigma) plus 0.5 μM xanthine (Sigma) (Rosen and Klebanoff, 1976, J Clin Invest 58 50-60; Cheson et al., 1976, J Clin Invest 58 789-796).
(§1) CL measurements were always done in triplicate and Student's t-test used to assess the statistical significance of the difference between measurements.

Row | Structure (SMILES) | CL inhibition (%)
1 | O=C(O)c1cc(-c2ccc(F)cc2F)ccc1O [DF, 2′,4′-difluoro-4-hydroxy-3-biphenylcarboxylic acid, reference compound] | 0.4 ± 0.1
2 | CCCC(=O)Oc1ccccc1C(=O)O [Compound C4SA, n-butanoylsalicylic acid] | 0.3 ± 0.1
3 | CCCCCC(=O)Oc1ccccc1C(=O)O [Compound C6SA, n-hexanoylsalicylic acid] | 0.2 ± 0.0

These molecules were tested on in-situ perfused rat liver (assay: In-situ rat liver perfusions, hepatic availability (Example 2)). Conditions: protein-free Krebs-Henseleit buffer as perfusate, 30 mL/min, bolus.
Type: in vitro ADME
Protocol: The hepatic availability (Fhepatic) for the O-acyl esters of the salicylic acid and diflunisal was determined using a once through in-situ perfused rat liver preparation (Mellick et al, Unpublished Results).
Protein-free Krebs-Henseleit buffer was perfused at 30 mL/min for aspiring analogues and 2% BSA in Krebs-Henseleit buffer for diflunisal esters (since the solubilities of these latter compounds in protein-free media were very low (Hung et al, supra), 2% BSA were used to increase their solubilities). Briefly, 50 μL aliquots of a saturated solution of the particular O-acyl salicylic acid or diflunisal in Krebs-Henseleit buffer (or with 2% BSA) was injected into the liver with perfusate outflow samples collected via a fraction collector over three minutes. Aliquots (100 μL) from the outflow samples were assayed by HPLC to determine the residual concentration of presented ester and the quantity of phenolic metabolite (salicylic acid or diflunisal) issuing from the perfused liver. The HPLC assay was a modification of the method used by Mellick & Roberts 1996 (Mellick et al, 1996, unpublished results).
The hepatic availability (F) was determined from the outflow concentration versus time profiles for the esters using equation 1, with the assistance of the Moments Calculator 2.2 program for Macintosh computer developed by Robert Purves.
where Q is the perfusate flow rate and D is the dose of aspirin analogues or diflunisal esters administered. The area under the concentration-time curve (AUC) was estimated by the trapezoidal rule integration with appropriate modification for tail (Mellick et al, supra).

Row | Structure (SMILES) | Hepatic availability (F)
4 | CCCC(=O)Oc1ccccc1C(=O)O [Compound C4SA, n-butanoylsalicylic acid] | 0.40
5 | CCCCCC(=O)Oc1ccccc1C(=O)O [Compound C6SA, n-hexanoylsalicylic acid] | 0.02

Each molecule was assayed on human platelet rich plasma (assay: Platelet aggregation induced by arachidonic acid). Conditions: preincubation 3 minutes; compound 600 µM, 37° C.; arachidonic acid 200 µM.
Type: cell-based
Protocol: Platelet aggregation studies were carried out using a single channel Lumiaggregometer (Chrono-Log Company, Haverton, Pa.) at 37° C. using human platelet-rich and platelet-poor plasma. Platelet-rich plasma (PRP) with a platelet concentration of […] (measured with a Coulter counter) was prepared by centrifuging 3.8% citrated […] (1:9) at 1,500 rpm using a (Beckman) benchtop centrifuge at room temperature for 15 minutes. Platelet-poor plasma (PPP) was prepared by further centrifuging residual blood from platelet-rich plasma at 3,000 rpm for 30 minutes. Platelet-poor plasma was also confirmed b y Coulter counting for platelet content.
Platelet aggregation studies were preceded by pipetting 0.4 mL platelet-rich plasma into a stirred aggregometer tube and calibrate to 90% of recorder. Platelet-poor plasma was set to calibrate at 10% of recorder. Platelet aggregation was initiated by the addition of a arachidonic acid (Sigma) or ADP (Sigma).
10 mM solutions of each compound (TABLE 6) were prepared in 1 mL of normal saline solution (containing 4% BSA) before use. An aliquot (400 μL) of platelet-rich plasma was pipetted into a stirred aggregometer tube at 37° C. and 30 μL of test sample added simultaneously. This mixture was preincubated for varying period (3 to 45 minutes), then arachidonic acid (AA) was added (final conc.=200 μM) to initiate platelet aggregation. If no aggregation occurred, 20 μM ADP was added to confirm the vitality of the platelets (if the platelets are vital, ADP will induce this AA-test sample-plasma mixture to aggregate). This procedure is necessary to investigate whether the non-aggregation phenomenon is due to drug inhibition or simply due to inviable platelets (unable to respond to AA). The degree of aggregation was measure by calculating the area under the turbidimetric response curve (AUC).

Row | Structure (SMILES) | Platelet Aggregation (% of control)
6 | CCCC(=O)Oc1ccccc1C(=O)O [Compound C4SA, n-butanoylsalicylic acid] | 29.5 ± 1.5^d % of control
7 | CCCCCC(=O)Oc1ccccc1C(=O)O [Compound C6SA, n-hexanoylsalicylic acid] | 90.1 ± 2.2 % of control

Same assay, conditions: preincubation 5 minutes; compound 600 µM, 37° C.; arachidonic acid 200 µM

Row | Structure (SMILES) | Platelet Aggregation (% of control)
8 | CCCC(=O)Oc1ccccc1C(=O)O [Compound C4SA, n-butanoylsalicylic acid] | 0 % of control
9 | CCCCCC(=O)Oc1ccccc1C(=O)O [Compound C6SA, n-hexanoylsalicylic acid] | 70.5 ± 3.1 % of control

Same assay, conditions: preincubation 8 minutes; compound 600 µM, 37° C.; arachidonic acid 200 µM

Row | Structure (SMILES) | Platelet Aggregation (% of control)
10 | CCCC(=O)Oc1ccccc1C(=O)O [Compound C4SA, n-butanoylsalicylic acid] | 0 % of control
11 | CCCCCC(=O)Oc1ccccc1C(=O)O [Compound C6SA, n-hexanoylsalicylic acid] | 39.9 ± 1.1 % of control

Same assay, conditions: preincubation 10 minutes; compound 600 µM, 37° C.; arachidonic acid 200 µM

Row | Structure (SMILES) | Platelet Aggregation (% of control)
12 | CCCC(=O)Oc1ccccc1C(=O)O [Compound C4SA, n-butanoylsalicylic acid] | 0 % of control
13 | CCCCCC(=O)Oc1ccccc1C(=O)O [Compound C6SA, n-hexanoylsalicylic acid] | 0 % of control

Same assay, conditions: preincubation 12 minutes; compound 600 µM, 37° C.; arachidonic acid 200 µM

Row | Structure (SMILES) | Platelet Aggregation (% of control)
14 | CCCC(=O)Oc1ccccc1C(=O)O [Compound C4SA, n-butanoylsalicylic acid] | 0 % of control
15 | CCCCCC(=O)Oc1ccccc1C(=O)O [Compound C6SA, n-hexanoylsalicylic acid] | 0 % of control

Same assay, conditions: preincubation 15 minutes; compound 600 µM, 37° C.; arachidonic acid 200 µM

Row | Structure (SMILES) | Platelet Aggregation (% of control)
16 | CCCC(=O)Oc1ccccc1C(=O)O [Compound C4SA, n-butanoylsalicylic acid] | 0 % of control
17 | CCCCCC(=O)Oc1ccccc1C(=O)O [Compound C6SA, n-hexanoylsalicylic acid] | 0 % of control

Same assay, conditions: preincubation 20 minutes; compound 600 µM, 37° C.; arachidonic acid 200 µM

Row | Structure (SMILES) | Platelet Aggregation (% of control)
18 | CCCC(=O)Oc1ccccc1C(=O)O [Compound C4SA, n-butanoylsalicylic acid] | 0 % of control
19 | CCCCCC(=O)Oc1ccccc1C(=O)O [Compound C6SA, n-hexanoylsalicylic acid] | 0 % of control

Same assay, conditions: preincubation 25 minutes; compound 600 µM, 37° C.; arachidonic acid 200 µM

Row | Structure (SMILES) | Platelet Aggregation (% of control)
20 | CCCC(=O)Oc1ccccc1C(=O)O [Compound C4SA, n-butanoylsalicylic acid] | 0 % of control
21 | CCCCCC(=O)Oc1ccccc1C(=O)O [Compound C6SA, n-hexanoylsalicylic acid] | 0 % of control

Same assay, conditions: preincubation 45 minutes; compound 600 µM, 37° C.; arachidonic acid 200 µM

Row | Structure (SMILES) | Platelet Aggregation (% of control)
22 | CCCC(=O)Oc1ccccc1C(=O)O [Compound C4SA, n-butanoylsalicylic acid] | 0 % of control
23 | CCCCCC(=O)Oc1ccccc1C(=O)O [Compound C6SA, n-hexanoylsalicylic acid] | 0 % of control

What follows are molecules tested on OH. generated from Fenton's reaction (assay: Luminol-dependent chemiluminescence induced by Fenton's reagent). Conditions: 0.5 (unit uncertain) compound; F: CL induced by Fenton's reagent; n=3; U = undetectable.
Type: biochemical
Parameters: unit of the concentration uncertain
Protocol: CL was measured with a luminometer (Model 1250; LKB Wallac, Finland) and recorded in millivolts (Cheung et al., 1984, supra).
Fenton's reagent (FeSO4 and H2O2) was used as a standard reaction mixture for the generation of OH. (Lai and Piette, 1979, Tetrahedron Lett. 775-778):
Fe^+++H2O2→Fe^++++OH.+OH (1)
The initial reaction mixture consisted of 20 μL of 3.8 mM FeSO4.7H2O, 20 μL of 5 mg/mL luminol (Sigma), and 2 mL of 1 mM phosphate buffer in a 3 mL polystyrene cuvette. Twenty microlitres of 320 mM H2O2 was added to initiate the Fenton's reaction.
A known concentration of the ethanolic (≲1%) aspirin analogue or diflunisal ester's stock solution was added to the 1 mM phosphate buffer to prepare solutions with a final concentration of 50 μM, 250 μM or 500 μM. Twenty microlitres of these test samples was added onto the cuvette which contained the initial reaction mixture. H2O2 was added to induce CL reaction. The luminol-dependent CL response was recorded in mV by a potentiometric recorder.
as §1

Row | Structure (SMILES) | CL inhibition (%)
24 | O=C(O)c1cc(-c2ccc(F)cc2F)ccc1O [DF, 2′,4′-difluoro-4-hydroxy-3-biphenylcarboxylic acid, reference compound] | 19.2 ± 6.9
25 | CCCCCC(=O)Oc1ccccc1C(=O)O [Compound C6SA, n-hexanoylsalicylic acid] | 0.2 ± 0.1

Same assay, conditions: 2.5 (unit uncertain) compound; F: CL induced by Fenton's reagent; n=3

Row | Structure (SMILES) | CL inhibition (%)
26 | O=C(O)c1cc(-c2ccc(F)cc2F)ccc1O [DF, 2′,4′-difluoro-4-hydroxy-3-biphenylcarboxylic acid, reference compound] | 50.6 ± 2.8
27 | CCCC(=O)Oc1ccccc1C(=O)O [Compound C4SA, n-butanoylsalicylic acid] | 41.3 ± 7.5
28 | CCCCCC(=O)Oc1ccccc1C(=O)O [Compound C6SA, n-hexanoylsalicylic acid] | 56.0 ± 3.7

Same assay, conditions: 5 (unit uncertain) compound; F: CL induced by Fenton's reagent; n=3

Row | Structure (SMILES) | CL inhibition (%)
29 | O=C(O)c1cc(-c2ccc(F)cc2F)ccc1O [DF, 2′,4′-difluoro-4-hydroxy-3-biphenylcarboxylic acid, reference compound] | 92.1 ± 0.6
30 | CCCC(=O)Oc1ccccc1C(=O)O [Compound C4SA, n-butanoylsalicylic acid] | 84.2 ± 1.4
31 | CCCCCC(=O)Oc1ccccc1C(=O)O [Compound C6SA, n-hexanoylsalicylic acid] | 96.0 ± 2.1

Source: patent US6593365B1, “Diflunisal esters and related compounds” (The University of Queensland, priority 1997, dated 2003)
